Reference: patent US20230075856A1, “CYCLIC SULFAMIDE COMPOUNDS FOR TREATMENT OF HBV” (Assembly Biosciences, Inc., priority 2018, published 2023)

These molecules were tested on HBV viral load production from HepAD38 cells (assay: Viral production from HepAD38 cells: viral load in supernatant by qPCR of the HBV core sequence). Conditions: 5 days incubation, qPCR of supernatant HBV DNA vs DMSO control, read-out: viral load lowering EC50 (Activity).
Format: cell-based
Procedure, shortened: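 HepAD38 cells seeded at 50,000/well in tetracycline-free medium with 2% FBS, treated with compounds (final top concentration 10 μM) for 5 days at 37 °C. Supernatant HBV DNA quantified by TaqMan qPCR of core sequence against HBV DNA standards, relative to DMSO controls; EC50 by four-parameter logistic fit.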
`CC(C)OC(=O)N1CCC(NC(=O)C2CC(C(=O)Nc3ccc(F)c(Cl)c3)N(C)S(=O)(=O)N2)CC1` (single isomer, unassigned) [Compound 766-ISOMER-B, isopropyl 4-[[5-[(3-chloro-4-fluoro-phenyl)carbamoyl]-6-methyl-1,1-dioxo-1,2,6-thiadiazinane-3-carbonyl]amino]piperidine-1-carboxylate] was tested, and the EC50 was 50 to 100 nM. In the case of `CN1C(C(=O)Nc2ccc(F)c(Cl)c2)CC(C(=O)NC2CCCc3nc(-c4ccc(OCCN5CCCCC5)cc4)sc32)NS1(=O)=O` (single isomer, unassigned; isomer-d) [Compound 948-ISOMER-D], the EC50 is reported as less than 50 nM. In the case of `CN1C(C(=O)Nc2ccc(F)c(Cl)c2)CC(C(=O)NCc2ccccc2)NS1(=O)=O` (single isomer, unassigned) [Compound 718-ISOMER-B, N5-benzyl-N3-(3-chloro-4-fluorophenyl)-2-methyl-1,1-dioxo-1,2,6-thiadiazinane-3,5-dicarboxamide], the EC50 is reported as 100 to 10000 nM. `CN1C(C(=O)Nc2ccc(F)c(Cl)c2)CC(C(=O)NCc2cc(-c3ccccc3Cl)no2)NS1(=O)=O` (single isomer, unassigned; isomer-a) [1025-ISOMER-A, N3-(3-chloro-4-fluro-phenyl)-N5-[[3-(2-chlorophenyl)isoxazol-5-yl]methyl]-2-methyl-1,1-dioxo-1,2,6-thiadiazinane-3,5-dicarboxamide] showed an EC50 of less than 50 nM. With `CN1C(C(=O)Nc2ccc(F)c(Cl)c2)CC(C(=O)NCc2ncc(-c3ccccc3)s2)NS1(=O)=O` (single isomer, unassigned) [Compound 931-ISOMER-B, N3-(3-chloro-4-fluoro-phenyl)-2-methyl-1,1-dioxo-N5-[(5-phenylthiazol-2-yl)methyl]-1,2,6-thiadiazinane-3,5-dicarboxamide] the EC50 was less than 50 nM. `COC(=O)N1CCC(NC(=O)C2CC(C(=O)Nc3ccc(F)c(Cl)c3)N(CC(F)(F)F)S(=O)(=O)N2)CC1` (single isomer, unassigned; isomer-a) [Compound 893-ISOMER-A, methyl 4-[[5-[(3-chloro-4-fluroo-phenyl)carbamoyl]-1,1-dioxo-6-(2,2,2-triflurooethyl)-1,2,6-thiadiazinane-3-carbonyl]amino]piperidine-1-carboxylate] showed an EC50 of less than 50 nM. Molecule `CN1C(C(=O)Nc2ccc(F)c(Cl)c2)CC(C(=O)NCc2cnc(-c3ccccc3Cl)s2)NS1(=O)=O` (single isomer, unassigned) [Compound 912-ISOMER-B, N3-(3-chloro-4-fluoro-phenyl)-N5-[[2-(2-chlorophenyl)thiazol-5-yl]methyl]-2-methyl-1,1-dioxo-1,2,6-thiadiazinane-3,5-dicarboxamide] has an EC50 of less than 50 nM. Work on `CN1C(C(=O)Nc2ccc(F)c(Cl)c2)CC(C(=O)NCc2cnc(-c3ccc(OCCCN4CCSCC4)cc3)s2)NS1(=O)=O` (single isomer, unassigned) [Compound 925-ISOMER-B, N3-(3-chloro-4-fluoro-phenyl)-2-methyl-1,1-dioxo-N5-[[2-[4-(3-thiomorpholinopropoxy)phenyl]thiazol-5-yl]methyl]-1,2,6-thiadiazinane-3,5-dicarboxamide] yielded an EC50 of 100 to 10000 nM.

Same assay, conditions: Hepatitis B virus, HePAD38, 120 h, 5 days incubation, qPCR of supernatant HBV DNA vs DMSO control, read-out: viral load lowering EC50 (Activity)
`CN1C(C(=O)Nc2ccc(F)c(Cl)c2)CC(C(=O)NCc2cnc(-c3cccnc3)s2)NS1(=O)=O` (centres unmarked) [Compound 911] was tested, and the EC50 was 50 to 100 nM. With `C[C@@H](NC(=O)C1CC(C(=O)Nc2ccc(F)c(Cl)c2)N(C)S(=O)(=O)N1)C1CCCCC1` (some centres unmarked) [Compound 741] the EC50 was 50 to 100 nM. Molecule `CN1C(C(=O)Nc2ccc(F)c(Cl)c2)CC(C(=O)NC2CC3CCC2C3)NS1(=O)=O` (centres unmarked) [Compound 858] has an EC50 of 100 to 10000 nM. For `Cc1c(CNC(=O)C2CC(C(=O)Nc3ccc(F)c(Cl)c3)N(C)S(=O)(=O)N2)noc1-c1ccccc1` (centres unmarked) [Compound 1150], the EC50 was less than 50 nM. Work on `CN1C(C(=O)Nc2ccc(F)c(Cl)c2)CC(C(=O)NCc2cnccn2)NS1(=O)=O` (centres unmarked) [Compound 704] yielded an EC50 of 100 to 10000 nM. In the case of `CC(NC(=O)C1CC(C(=O)Nc2ccc(F)c(Cl)c2)N(C)S(=O)(=O)N1)c1csc(-c2ccccc2Cl)n1` (centres unmarked) [Compound 1029], the EC50 is reported as 100 to 10000 nM. With `CN1C(C(=O)Nc2ccc(F)c(C#N)c2)CC(C(=O)NCc2cccc(Cl)c2)NS1(=O)=O` (centres unmarked) [Compound 837] the EC50 was less than 50 nM. `Cc1ccccc1-c1nc(C)c(CNC(=O)C2CC(C(=O)Nc3ccc(F)c(Cl)c3)N(C)S(=O)(=O)N2)s1` (single isomer, unassigned) [1017-ISOMER-A, N3-(3-chloro-4-fluoro-phenyl)-2-methyl-N5-[[4-methyl-2-(o-tolyl)thiazol-5-yl]methyl]-1,1-dioxo-1,2,6-thiadiazinane-3,5-dicarboxamide] showed an EC50 of less than 50 nM. For `CN1C(C(=O)Nc2ccc(F)c(Cl)c2)CC(C(=O)NCc2cc(-c3ccccc3)on2)NS1(=O)=O` (single isomer, unassigned) [1149-ISOMER-A, N3-(3-chloro-4-fluoro-phenyl)-2-methyl-1,1-dioxo-N5-[(5-phenylisoxazol-3-yl)methyl]-1,2,6-thiadiazinane-3,5-dicarboxamide], the EC50 was less than 50 nM. `Cc1nc(-c2ccccc2F)sc1CN(C(=O)C1CC(C(N)=O)NS(=O)(=O)N1C)c1ccc(F)c(Cl)c1` (single isomer, unassigned) [1016-ISOMER-A, N3-(3-chloro-4-fluoro-phenyl)-N-[[2-(2-fluorophenyl)-4-methyl-thiazol-5-yl]methyl]-2-methyl-1,1-dioxo-1,2,6-thiadiazinane-3,5-dicarboxamide] showed an EC50 of less than 50 nM. In the case of `Cc1nc(-c2ccccc2)sc1C(NC(=O)C1CC(C(=O)Nc2ccc(F)c(Cl)c2)N(C)S(=O)(=O)N1)c1ccccc1` (centres unmarked) [Compound 1099], the EC50 is reported as 50 to 100 nM. In the case of `CN1C(C(=O)Nc2ccc(F)c(Cl)c2)CC(C(=O)NC(c2ccccc2)c2cnc(Cl)s2)NS1(=O)=O` (centres unmarked) [Compound 1066], the EC50 is reported as less than 50 nM. `CN1C(C(=O)Nc2ccc(F)c(Cl)c2)CC(C(=O)N[C@@H](c2ccccc2)c2cnc(-c3ccccc3)s2)NS1(=O)=O` (single isomer, unassigned) [1067-ISOMER-D] showed an EC50 of 100 to 10000 nM. `CN1C(C(=O)Nc2ccc(F)c(Cl)c2)CC(C(=O)NCc2cnc(Cl)s2)NS1(=O)=O` (single isomer, unassigned) [1199-ISOMER-A, N3-(3-chloro-4-fluoro-phenyl)-N5-[(2-chlorothiazol-5-yl)methyl]-2-methyl-1,1-dioxo-1,2,6-thiadiazinane-3,5-dicarboxamide] showed an EC50 of less than 50 nM. Molecule `COc1cccc(CNC(=O)C2CC(C(=O)Nc3ccc(F)c(Cl)c3)N(C)S(=O)(=O)N2)c1` (single isomer, unassigned) [Compound 721-ISOMER-A, N3-(3-chloro-4-fluoro-phenyl)-N5-[(3-methoxyphenyl)methyl]-2-methyl-1,1-dioxo-1,2,6-thiadiazinane-3,5-dicarboxamide] has an EC50 of less than 50 nM. For `CN1C(C(=O)Nc2ccc(F)c(Cl)c2)CC(C(=O)NCc2cccc(Cl)c2)NS1(=O)=O` (centres unmarked) [Compound 730], the EC50 was less than 50 nM. Work on `Cc1cnc(CNC(=O)C2CC(C(=O)Nc3ccc(F)c(C#N)c3)N(C)S(=O)(=O)N2)s1` (centres unmarked) [Compound 829] yielded an EC50 of 100 to 10000 nM. `CN1C(C(=O)Nc2ccc(F)c(Cl)c2)CC(C(=O)NC2CCC(F)(F)CC2)NS1(=O)=O` (centres unmarked) [Compound 859] showed an EC50 of 100 to 10000 nM. With `CN(C)CCCCc1cnn(-c2ncc(CNC(=O)C3CC(C(=O)Nc4ccc(F)c(Cl)c4)N(C)S(=O)(=O)N3)s2)c1` (centres unmarked) [Compound 1197] the EC50 was 100 to 10000 nM. Work on `Cc1nc(-c2ccccc2F)sc1[C@@H](NC(=O)C1CC(C(=O)Nc2ccc(F)c(Cl)c2)N(C)S(=O)(=O)N1)c1ccccc1` (single isomer, unassigned) [1101-ISOMER-B] yielded an EC50 of 100 to 10000 nM. Work on `CC(=O)N1CCC(NC(=O)C2CC(C(=O)Nc3ccc(F)c(Cl)c3)N(C)S(=O)(=O)N2)CC1` (centres unmarked) [Compound 851] yielded an EC50 of 100 to 10000 nM. For `Cc1noc(CNC(=O)C2CC(C(=O)Nc3ccc(F)c(Cl)c3)N(C)S(=O)(=O)N2)n1` (centres unmarked) [Compound 685], the EC50 was 100 to 10000 nM. Work on `CN1C(C(=O)Nc2ccc(F)c(Cl)c2)CC(C(=O)NCc2cnc(C(F)(F)F)s2)NS1(=O)=O` (centres unmarked) [Compound 498] yielded an EC50 of 100 to 10000 nM. Work on `Cc1nc(-c2ccc(OCCN3CCCCC3)cc2)sc1CNC(=O)C1CC(C(=O)Nc2ccc(F)c(Cl)c2)N(C)S(=O)(=O)N1` (centres unmarked) [Compound 1087] yielded an EC50 of less than 50 nM. With `CC(NC(=O)C1CC(C(=O)Nc2ccc(F)c(Cl)c2)N(C)S(=O)(=O)N1)c1cnc(Cl)s1` (centres unmarked) [Compound 1030] the EC50 was less than 50 nM. `Cc1nc(-c2ccccc2)sc1CNC(=O)C1CC(C(=O)Nc2ccc(F)c(Cl)c2)N(C)S(=O)(=O)N1` (single isomer, unassigned) [Compound 914-ISOMER-A, N3-(3-chloro-4-fluoro-phenyl)-2-methyl-N5-[(4-methyl-2-phenyl-thiazol-5-yl)methyl]-1,1-dioxo-1,2,6-thiadiazinane-3,5-dicarboxamide] gave an EC50 of less than 50 nM. Molecule `CN1C(C(=O)Nc2ccc(F)c(Cl)c2)CC(C(=O)NC2CCN(c3ccnc(-c4ccccc4)c3)CC2)NS1(=O)=O` (single isomer, unassigned) [1050-ISOMER-A, N3-(3-chloro-4-fluoro-phenyl)-2-methyl-1,1-dioxo-N5-[1-(2-phenyl-4-pyridyl)-4-piperidyl]-1,2,6-thiadiazinane-3,5-dicarboxamide] has an EC50 of 100 to 10000 nM. With `CN1C(C(=O)Nc2ccc(F)c(Cl)c2)CC(C(=O)NCc2ccc(S(N)(=O)=O)s2)NS1(=O)=O` (centres unmarked) [Compound 682] the EC50 was 100 to 10000 nM. For `CCN1CCC(Oc2ccc(-c3ncc(CNC(=O)C4CC(C(=O)Nc5ccc(F)c(Cl)c5)N(C)S(=O)(=O)N4)s3)cc2)CC1` (centres unmarked) [Compound 921], the EC50 was 50 to 100 nM. `CN1C(C(=O)Nc2ccc(F)c(Cl)c2)CC(C(=O)NC(c2ccccc2)c2cnc(-c3ccccc3Cl)s2)NS1(=O)=O` (single isomer, unassigned) [1068-ISOMER-A, N3-(3-chloro-4-fluoro-phenyl)-N5-[[2-(2-chlorophenyl)thiazol-5-yl]-phenyl-methyl]-2-methyl-1,1-dioxo-1,2,6-thiadiazinane-3,5-dicarboxamide] gave an EC50 of less than 50 nM.
